Patent US20040023994A1 (priority 2002, published 2004)
Entries after “also recorded” stand apart in the source; their conditions may differ.

Columns and labels:
A-498 cells = assay: MTT cytotoxicity assay; format: cell-based, human; details: for IC50: A-498, 72 h incubation, MTT
Method: (§1) Preliminary studies examining the in vitro cytotoxicity of cis-AVTP and trans-AVTG as compared to the parent drugs, were carried out using the 3-[4,5-dimethylthiazol-2-yl]-2,5-diphenyl tetrazolium bromide (MTT) cytotoxicity assay.

ACHN cells = assay: MTT cytotoxicity assay; format: cell-based, human; details: for IC50: 72 h incubation, MTT
Method: as §1

Question: What does the source list for `Cn1cnc([N+](=O)[O-])c1Sc1ncnc2nc[nH]c12` [AZA, azathioprine]?
Answer: IC50 (A-498 cells; Homo sapiens, A498): 50.2 ± 10.4 µM; IC50 (ACHN cells; Homo sapiens): 22.1 µM

Question: `CC(=O)C=Cc1ccccc1` [PBO, phenylbutenone] was tested. Which IC50 (A-498 cells) did it give?
Answer: 252 ± 149 µM

Question: What about the IC50 (ACHN cells) of the same molecule?
Answer: 62.3 ± 10.7 µM

Question: For `O=C(O)/C=C\Sc1ncnc2[nH]cnc12` [PTA, cis-3-(9H-purin-6-ylthio)acrylic acid], which cytotoxicity (A-498 cells; A-498, within the concentration range examined (up to 500 μM)) is on record?
Answer: little cytotoxicity; also recorded: not cytotoxic

Question: What about the cytotoxicity (ACHN cells; within the concentration range examined (up to 500 μM)) of the same molecule?
Answer: little cytotoxicity; also recorded: not cytotoxic
